Laboratory results from PubChem BioAssay AID330 (DTP/NCI, 2004).
Values joined by “and” are separate entries in the source; they are usually repeats but may differ in a detail not shown here. Equal values may be shown once. Toxic doses and inconclusive results are not listed. Rule for the calls: active = survival T/C of 150% or more; inactive = T/C below 125% in these data. Bridge positions count the residues as written; N and C are the ends. Peptide text beside a SMILES is read from it. I, II: the chains in the order shown.

Tested on: P388 leukemia ip, CD2F1 mice, survival T/C
Assay: NCI In Vivo Anticancer Drug Screen. Data for tumor model P388 Leukemia (intraperitoneal) in CD2F1 (CDF1) mice
Conditions: endpoint: median survival time, higher = longer survival
Method in brief: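 Mice carrying the transplanted tumor received test compound or vehicle. Survival was recorded in each group, and the value is the treated-group measurement divided by that of the vehicle-treated control group.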

[1] = dose: 100.0 mg/kg/injection, schedule: Q01DX009 (ip), vehicle: saline with Tween-80
[2] = dose: 100.0 mg/kg/injection, schedule: Q04DX003 (ip), vehicle: saline with Tween-80
[3] = dose: 200.0 mg/kg/injection, schedule: Q01DX009 (ip), vehicle: saline with Tween-80
[4] = dose: 200.0 mg/kg/injection, schedule: Q04DX003 (ip), vehicle: saline with Tween-80
[5] = dose: 400.0 mg/kg/injection, schedule: Q01DX009 (ip), vehicle: saline with Tween-80
[6] = dose: 400.0 mg/kg/injection, schedule: Q04DX003 (ip), vehicle: saline with Tween-80
[7] = dose: 50.0 mg/kg/injection, schedule: Q01DX005 (ip), vehicle: saline with Tween-80
[8] = dose: 100.0 mg/kg/injection, schedule: Q01DX009 (ip), vehicle: Klucel (hydroxypropylcellulose) (HPC)
[9] = dose: 60.0 mg/kg/injection, schedule: Q01DX005 (ip), vehicle: saline with Tween-80
[10] = dose: 120.0 mg/kg/injection, schedule: Q01DX005 (ip), vehicle: saline with Tween-80
[11] = dose: 50.0 mg/kg/injection, schedule: Q01DX009 (ip), vehicle: suspension in saline
[12] = dose: 50.0 mg/kg/injection, schedule: Q01DX005 (ip), vehicle: Klucel (hydroxypropylcellulose) (HPC)
[13] = dose: 100.0 mg/kg/injection, schedule: Q01DX005 (ip), vehicle: Klucel (hydroxypropylcellulose) (HPC)
[14] = dose: 200.0 mg/kg/injection, schedule: Q01DX005 (ip), vehicle: Klucel (hydroxypropylcellulose) (HPC)
[15] = dose: 12.5 mg/kg/injection, schedule: Q01DX009 (ip), vehicle: saline
[16] = dose: 50.0 mg/kg/injection, schedule: Q01DX009 (ip), vehicle: saline with Tween-80
[17] = dose: 50.0 mg/kg/injection, schedule: Q01DX009 (ip), vehicle: Klucel (hydroxypropylcellulose) (HPC)

Measured: T/C

CCC(=O)OC1CCC2C3CCC4=CC(=O)CCC4(C)C3CCC12C (stereo not drawn)
inactive: [1] 95 % of control | [2] 95 % of control | [3] 104 % of control | [4] 100 % of control | [5] 95 % of control | [6] 100 % of control

CCCCCCNc1nc(NCCCCCC)c2[nH]c(NCCCCCC)nc2n1
inactive: [7] 122 % of control

Ic1ccc2c(c1)N(c1ccccc1)c1cc(N=c3ccc4nc5ccc(I)cc5n(-c5ccccc5)c-4c3)ccc1N2
inactive: [8] 96 % of control | dose: 200.0 mg/kg/injection, schedule: Q01DX009 (ip), vehicle: Klucel (hydroxypropylcellulose) (HPC) 89 % of control

Cc1cc(=O)n2c(n1)sc1ccc3ccccc3c12
inactive: [9] 100 % of control | [10] 100 % of control | dose: 240.0 mg/kg/injection, schedule: Q01DX005 (ip), vehicle: saline with Tween-80 97 % of control

Cc1ccc(NC(=S)SCc2ccc3c(c2)OCO3)cc1Cl
inactive: [11] 106 % of control | dose: 100.0 mg/kg/injection, schedule: Q01DX009 (ip), vehicle: suspension in saline 94 % of control | dose: 200.0 mg/kg/injection, schedule: Q01DX009 (ip), vehicle: suspension in saline 102 % of control

COCCOC(=O)C1=C(O)c2ccccc2S(=O)(=O)N1C
inactive: dose: 60.0 mg/kg/injection, schedule: Q01DX005 (ip), vehicle: Klucel (hydroxypropylcellulose) (HPC) 106 % of control | dose: 120.0 mg/kg/injection, schedule: Q01DX005 (ip), vehicle: Klucel (hydroxypropylcellulose) (HPC) 109 % of control | dose: 240.0 mg/kg/injection, schedule: Q01DX005 (ip), vehicle: Klucel (hydroxypropylcellulose) (HPC) 120 % of control

C=CCC1(O)CC2NC(C1)[C@@H]1OC(C)(C)O[C@H]21 (stereo partly drawn)
inactive: [12] 92 % of control | [13] 87 % of control | [14] 94 % of control

CCn1c2ccccc2c2cc(NC(=O)N3CCCCC3)ccc21
inactive: [7] 95 % of control | dose: 100.0 mg/kg/injection, schedule: Q01DX005 (ip), vehicle: saline with Tween-80 95 % of control | dose: 200.0 mg/kg/injection, schedule: Q01DX005 (ip), vehicle: saline with Tween-80 90 % of control

CCCCCCCC[N+](C)([O-])CCCCCC[N+](C)([O-])CCCCCCCC (stereo not drawn)
inactive: dose: 50.0 mg/kg/injection, schedule: Q01DX009 (ip), vehicle: saline 99 % of control | dose: 100.0 mg/kg/injection, schedule: Q01DX009 (ip), vehicle: saline 94 % of control

NC(CSSCC(N)C(=O)NC(Cc1ccccc1)C(=O)O)C(=O)NC(Cc1ccccc1)C(=O)O (stereo not drawn) (I: H-Cys-Phe-OH / II: H-Cys-Phe-OH; disulfide I:1-II:1; configuration not given here)
inactive: [12] 101 % of control | [13] 97 % of control | [14] 105 % of control

NC(=O)C(F)C(N)C(=O)O (stereo not drawn)
inactive: dose: 12.5 mg/kg/injection, schedule: Q01DX009 (ip), vehicle: suspension in saline 100 % of control | dose: 25.0 mg/kg/injection, schedule: Q01DX009 (ip), vehicle: suspension in saline 103 % of control | [11] 97 % of control

COc1cc(C2Oc3c(OC)cc(/C=C/C(=O)NCCc4ccc(O)cc4)cc3C2C(=O)NCCc2ccc(O)cc2)ccc1O (stereo not drawn)
inactive: dose: 1.88 mg/kg/injection, schedule: Q01DX005 (ip), vehicle: Klucel (hydroxypropylcellulose) (HPC) 96 % of control | dose: 3.75 mg/kg/injection, schedule: Q01DX005 (ip), vehicle: Klucel (hydroxypropylcellulose) (HPC) 94 % of control | dose: 7.5 mg/kg/injection, schedule: Q01DX005 (ip), vehicle: Klucel (hydroxypropylcellulose) (HPC) 99 % of control | dose: 15.0 mg/kg/injection, schedule: Q01DX005 (ip), vehicle: Klucel (hydroxypropylcellulose) (HPC) 101 % of control

Cc1cccc(C(=O)CC[N+](C)(C)C)c1
inactive: dose: 3.13 mg/kg/injection, schedule: Q01DX009 (ip), vehicle: saline 111 % of control | dose: 6.25 mg/kg/injection, schedule: Q01DX009 (ip), vehicle: saline 109 % of control | [15] 94 % of control

CCOC(=O)/C=C(\C)SC1=CC(=O)c2ccccc2C1=O
inactive: dose: 3.13 mg/kg/injection, schedule: Q01DX009 (ip), vehicle: saline with Tween-80 86 % of control | dose: 6.25 mg/kg/injection, schedule: Q01DX009 (ip), vehicle: saline with Tween-80 94 % of control | dose: 12.5 mg/kg/injection, schedule: Q01DX009 (ip), vehicle: saline with Tween-80 99 % of control and 122 % of control | dose: 25.0 mg/kg/injection, schedule: Q01DX009 (ip), vehicle: saline with Tween-80 100 % of control and 111 % of control | [16] 100 % of control and 107 % of control

CC(=O)c1ccc(-c2ccc(C(C)=O)cc2)cc1
inactive: [16] 96 % of control | [1] 100 % of control | [3] 87 % of control | [5] 87 % of control

C=C(C)CSc1ncnc2nc[nH]c12
inactive: [2] 104 % of control | [4] 100 % of control | [6] 100 % of control

CC(C)C(NC(=O)OC(C)(C)C)C(=O)ON1C(=O)CCC1=O (stereo not drawn)
inactive: [16] 118 % of control | [1] 111 % of control | [3] 99 % of control

Oc1cccc(/C=N/N=C/c2cccc(O)c2O)c1O
inactive: [17] 96 % of control | [8] 93 % of control

CC(O)CN(CCN(CC(C)O)CC(C)O)CC(C)O.[Cl-].[Zn+2] (stereo not drawn)
inactive: [15] 117 % of control | dose: 25.0 mg/kg/injection, schedule: Q01DX009 (ip), vehicle: saline 122 % of control

[N-]=[N+]=Nc1ccc2nc(N)nc(N)c2c1
inactive: dose: 100.0 mg/kg/injection, schedule: Q01DX001 (ip), vehicle: Klucel (hydroxypropylcellulose) (HPC) 99 % of control | dose: 200.0 mg/kg/injection, schedule: Q01DX001 (ip), vehicle: Klucel (hydroxypropylcellulose) (HPC) 100 % of control

CCCCCCCCCCCCC[N+](C)([O-])CCCCCC[N+](C)([O-])CCCCCCCCCCCCC (stereo not drawn)
inactive: dose: 12.5 mg/kg/injection, schedule: Q01DX009 (ip), vehicle: Klucel (hydroxypropylcellulose) (HPC) 100 % of control | dose: 25.0 mg/kg/injection, schedule: Q01DX009 (ip), vehicle: Klucel (hydroxypropylcellulose) (HPC) 93 % of control | [17] 101 % of control and 93 % of control

CC(=O)OCCSSCCOC(C)=O
inactive: [16] 107 % of control | [1] 113 % of control

Cc1c(Cl)cccc1NS(=O)(=O)c1ccccc1
inactive: [2] 104 % of control | [4] 104 % of control | [6] 90 % of control

Nc1nc(N)c2c(n1)=NC(c1cccc3ccccc13)N=2 (stereo not drawn)
inactive: dose: 25.0 mg/kg/injection, schedule: Q01DX009 (ip), vehicle: other 101 % of control | dose: 50.0 mg/kg/injection, schedule: Q01DX009 (ip), vehicle: other 106 % of control | dose: 100.0 mg/kg/injection, schedule: Q01DX009 (ip), vehicle: other 102 % of control | dose: 200.0 mg/kg/injection, schedule: Q01DX009 (ip), vehicle: other 99 % of control | dose: 400.0 mg/kg/injection, schedule: Q01DX009 (ip), vehicle: other 106 % of control

CCC12C(=O)C(CC)(C(c3ccccc3)=C1c1ccccc1)C1OC(=O)OC12 (stereo not drawn)
inactive: [16] 97 % of control | [1] 91 % of control | [3] 86 % of control

COC(=O)C1=NC(=N)N=C(C(=O)OC)C12C(=O)Cc1ccccc12 (stereo not drawn)
inactive: [9] 103 % of control | [10] 100 % of control
